For 6 molecules, AC50 and IC50 results are on record in ChEMBL document CHEMBL1201862, “PubChem BioAssay data set” (2004).

Activity calls are given as the source filed them.

One test relates to HeLa. The test can be described thus: ATP-based viability loss in HeLa cells – cell-based, CellTiter-Glo luminescence, cherry-pick samples, cytotoxicity control for MITF activator project, dose response (AID 540259). It counts as functional. Particulars: Homo sapiens.
For test [1], the target named is T1, Nuclear receptor subfamily 0 group B member 1 (Homo sapiens, UniProt P51843).
T1 sequence (P51843 whole entry): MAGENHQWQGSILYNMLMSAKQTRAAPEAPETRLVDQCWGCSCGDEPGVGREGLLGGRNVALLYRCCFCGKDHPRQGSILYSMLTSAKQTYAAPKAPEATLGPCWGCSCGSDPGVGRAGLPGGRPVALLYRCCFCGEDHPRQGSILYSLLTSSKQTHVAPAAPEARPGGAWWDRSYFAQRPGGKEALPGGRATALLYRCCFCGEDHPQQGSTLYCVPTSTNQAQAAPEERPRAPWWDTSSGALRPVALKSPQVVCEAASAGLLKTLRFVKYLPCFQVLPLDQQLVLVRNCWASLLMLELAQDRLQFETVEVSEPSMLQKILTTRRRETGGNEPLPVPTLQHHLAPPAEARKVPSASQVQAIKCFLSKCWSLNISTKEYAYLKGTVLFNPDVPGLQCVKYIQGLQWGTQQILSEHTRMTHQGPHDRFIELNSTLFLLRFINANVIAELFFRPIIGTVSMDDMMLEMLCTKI
The test can be described thus: Luminescence-based cell-based high throughput dose response assay for inhibitors of the orphan nuclear receptor subfamily 0, group B, member 1 (DAX1; NR0B1). [Related pubchem assays (depositor defined):AID504766, AID504790]. The class given is functional.

Another test concerns HEK293. The test can be described thus: cells. The class given is functional, cell-based. The note with it: Homo sapiens.
Test [2] addresses Voltage-gated inwardly rectifying potassium channel KCNH2 (Homo sapiens, UniProt Q12809). Particulars: Potency.

Voltage-gated inwardly rectifying potassium channel KCNH2, sequence (Q12809 whole entry): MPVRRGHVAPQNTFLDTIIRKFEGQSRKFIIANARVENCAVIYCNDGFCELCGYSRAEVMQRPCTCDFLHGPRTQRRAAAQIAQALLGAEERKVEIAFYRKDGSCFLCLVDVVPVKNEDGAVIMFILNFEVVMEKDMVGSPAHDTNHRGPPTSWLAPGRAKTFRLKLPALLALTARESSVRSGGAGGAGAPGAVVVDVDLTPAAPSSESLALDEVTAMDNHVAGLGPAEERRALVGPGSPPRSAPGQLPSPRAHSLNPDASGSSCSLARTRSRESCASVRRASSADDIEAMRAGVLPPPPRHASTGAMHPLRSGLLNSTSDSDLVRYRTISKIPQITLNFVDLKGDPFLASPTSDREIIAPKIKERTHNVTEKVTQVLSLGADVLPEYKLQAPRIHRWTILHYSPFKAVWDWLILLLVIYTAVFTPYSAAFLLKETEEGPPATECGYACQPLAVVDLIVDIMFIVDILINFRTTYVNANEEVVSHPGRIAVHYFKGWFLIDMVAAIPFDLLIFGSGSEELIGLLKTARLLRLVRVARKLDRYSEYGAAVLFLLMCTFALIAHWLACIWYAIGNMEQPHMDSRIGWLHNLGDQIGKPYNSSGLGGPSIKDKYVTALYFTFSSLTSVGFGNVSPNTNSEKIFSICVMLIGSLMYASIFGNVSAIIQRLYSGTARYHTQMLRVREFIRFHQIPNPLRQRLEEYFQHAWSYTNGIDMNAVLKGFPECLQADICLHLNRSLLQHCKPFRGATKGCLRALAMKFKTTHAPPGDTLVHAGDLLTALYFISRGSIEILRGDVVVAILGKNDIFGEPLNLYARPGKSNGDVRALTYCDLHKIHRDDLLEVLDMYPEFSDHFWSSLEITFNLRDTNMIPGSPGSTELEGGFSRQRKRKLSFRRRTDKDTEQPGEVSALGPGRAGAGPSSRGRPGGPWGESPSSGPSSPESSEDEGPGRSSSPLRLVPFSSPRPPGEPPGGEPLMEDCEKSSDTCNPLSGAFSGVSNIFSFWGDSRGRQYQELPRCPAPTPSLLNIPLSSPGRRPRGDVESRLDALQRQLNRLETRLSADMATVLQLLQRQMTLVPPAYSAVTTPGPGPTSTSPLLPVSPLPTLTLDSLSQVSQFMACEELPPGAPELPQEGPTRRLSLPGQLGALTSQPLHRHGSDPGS

Usually AC50 stands for the concentration giving half of the maximal activity seen. As for `CCn1c(C)nc2cc(C(=O)N/N=C(\C)c3ccccc3O)ccc21`, the AC50 in the test with HeLa was 126 µM (active).

The IC50 is the concentration that inhibits the measured activity by half. With `O=C(CN1C(=O)NC2(CCCC2)C1=O)Nc1ccc(OC(F)(F)F)cc1`, the IC50 (in test [1]; in the test with HEK293) was > 67.5 µM (inactive) in each case.

`C=CCN1CC[C@]23CCCCC2[C@H]1Cc1ccc(O)cc13` (stereo partly drawn): in test [2], the AC50 is 2.24 µM (inconclusive).

Turning to `NC(=S)NCCCC(N)C(=O)O` (stereo not drawn), in test [2], the AC50 is 35.5 µM (inconclusive).

Turning to `O=CNC(n1cnc2c(N3CCOCC3)ncnc21)C(Cl)(Cl)Cl` (stereo not drawn), the IC50 (in test [1]; with HEK293) was > 67.5 µM (inactive) in each case.

`O=C(N/C=C/c1ccccc1)c1ccccc1`: in the test on HeLa, the AC50 was 206 µM (active).
